Source: patent US7485631B2, “Phorboxazole compounds and methods of their preparation” (The Trustees of the University of Pennsylvania, priority 2005, dated 2009)
Like-named read-outs stand apart in the source and are kept apart here.

Tests used:
[1] = other bond, K2CO3/18-crown-6, toluene, 25.0 °C
[2] = system: human cancer cell lines BXP-3, MCF-3, F-268, NCl-H460, KM20L2, DU-145; test: Cancer growth inhibition, average over the six human cancer cell line panel; type: cell-based; details: for tumor cell growth inhibitory activity compared with (+)-phorboxazole A (in words): summary of the six cell line panel; for GI50: Homo sapiens, average over six human cancer cell lines
Description: (§1) With (+)-phorboxazole A (XVIII) and the eight phorboxazole analogues in hand, biological evaluation against a diverse panel of human cancer cell lines was conducted in the laboratory of Professor George R. Pettit at the Cancer Research Institute of Arizona State University. Specifically, cancer growth inhibition efficacy was evaluated against the human cancer cell lines; BXP-3 (pancreatic), MCF-3 (breast), F-268 (CNS), NCl-H460 (non-small lung), KM20L2 (colon), and DU-145 (prostate) (Smith, et al. Org. Lett. 2005, 7, 4403; Smith, et al. Org. Lett. 2005, 8, 797).

[3] = system: NCl-H460 (non-small lung); test: Cancer growth inhibition, non-small lung cancer cell line; type: cell-based; details: Homo sapiens
Description: as §1

BXP-3 (pancreatic) = test: Cancer growth inhibition, pancreatic cancer cell line; type: cell-based; details: Homo sapiens
Description: as §1

KM20L2 (colon) = test: Cancer growth inhibition, colon cancer cell line; type: cell-based; details: Homo sapiens, KM-20L2
Description: as §1

F-268 (CNS) = test: Cancer growth inhibition, CNS cancer cell line; type: cell-based; details: Homo sapiens
Description: as §1

[4] = system: National Cancer Institute's (NCI) panel of 60 human tumor cell lines; details: mean over the entire NCI 60 human tumor cell line panel; cited from earlier work
MCF-3 (breast) = test: Cancer growth inhibition, breast cancer cell line; type: cell-based; details: Homo sapiens
Description: as §1

Compound `C=C1C[C@@H]2C[C@@H]3CCO[C@@H](O3)c3coc(n3)/C=C/C[C@H]3O[C@@H](/C(C)=C/I)[C@H](C)[C@@H](OC(=O)/C=C\C[C@@H](C1)O2)[C@H]3C` has a ring closure, yield of all isomers ([1]; from C=C1C[C@H](C[C@@H]2CCO[C@H](c3coc(/C=C/C[C@H]4O[C@@H](/C(C)=C/I)[C@H](C)[C@@H](OC(=O)CP(=O)(OCC(F)(F)F)OCC(F)(F)F)[C@H]4C)n3)O2)O[C@@H](CC=O)C1, 0.74 mM, 2.0 h) of 86%.

For `C=CC[C@H](/C=C/C(C)=C/[C@@H](O)[C@H]1C[C@@H](OC)C[C@](Cc2nc(/C=C(\C)[C@@H]3O[C@H](CCO)[C@H](C)[C@H](OCc4ccc(OC)c(OC)c4)[C@H]3C)co2)(OC)O1)OC` [XVIIe, C(45-46)-Alkenyl-C(22-26)-Central Tetrahydropyran Phorboxazole], the “activity across the entire cell line panel (in words)” value ([2]; six human cancer cell lines) was “inactive”.

For `C=C1C[C@@H]2C[C@@H]3C[C@@H](O)C[C@@H](O3)c3coc(n3)/C=C/C[C@H]3O[C@@H](/C(C)=C/c4coc(C[C@]5(O)C[C@H](OC)C[C@H]([C@H](O)/C=C(C)/C=C/[C@@H](C/C=C/Cl)OC)O5)n4)[C@H](C)[C@@H](OC(=O)/C=C\C[C@@H](C1)O2)[C@H]3C` [XVIId, C(45-46)-E-Chloroalkenyl-Phorboxazole], the “tumor cell growth inhibitory activity compared with (+)-phorboxazole A (in words)” value [2] was “activity greater than that of (+)-phorboxazole A”, the GI50 [3] was 0.64 nM and the GI50 (BXP-3 (pancreatic)) was 0.62 nM. The GI50 (KM20L2 (colon)) was 0.38 nM and the GI50 (F-268 (CNS)) was 0.49 nM.

`C#CC[C@H](/C=C/C(C)=C/[C@@H](O)[C@H]1C[C@@H](OC)C[C@@](O)(Cc2nc(/C=C(\C)[C@@H]3O[C@@H]4C/C=C/c5nc(co5)[C@H]5C[C@H](O)C[C@@H](C[C@H]6CC(=C)C[C@H](C/C=C/C(=O)O[C@@H]([C@H]4C)[C@H]3C)O6)O5)co2)O1)OC` [XVIIaE, E-C(2-3)-C(45-46)-Alkynyl-Phorboxazole] gave a GI50 [2] of 281 nM.

For `C=C1C[C@@H]2C[C@@H]3C[C@@H](O)C[C@@H](O3)c3coc(n3)/C=C/C[C@H]3O[C@@H](/C(C)=C/c4coc(C[C@]5(O)C[C@H](OC)C[C@H]([C@H](O)/C=C(C)/C=C/[C@@H](C/C=C/Br)OC)O5)n4)[C@H](C)[C@@H](OC(=O)/C=C\C[C@@H](C1)O2)[C@H]3C` [XVIII, Phorboxazole A, reference compound], the GI50 [2] is listed as 5 nM and the GI50 [4] is listed as 1.58 nM.

For `C#CC[C@H](/C=C/C(C)=C/[C@@H](O)[C@H]1C[C@@H](OC)C[C@@](O)(Cc2nc(/C=C(\C)[C@@H]3O[C@@H]4C/C=C/c5nc(co5)[C@H]5C[C@H](O)C[C@@H](C[C@H]6CC(=C)C[C@H](C/C=C\C(=O)O[C@@H]([C@H]4C)[C@H]3C)O6)O5)co2)O1)OC` [XVIIaZ, C(45-46)-Alkynyl-Phorboxazole], the GI50 [2] was 5.2 nM and the “tumor cell growth inhibitory activity compared with (+)-phorboxazole A (in words)” value [2] was “activity comparable to that of (+)-phorboxazole A”.

Compound `C=C1C[C@@H]2C[C@@H]3C[C@@H](O[Si](C)(C)C(C)(C)C)C[C@@H](O3)c3coc(n3)/C=C/C[C@H]3O[C@@H](/C(C)=C/I)[C@H](C)[C@@H](OC(=O)/C=C\C[C@@H](C1)O2)[C@H]3C` has a ring closure, yield of all isomers ([1]; from C=C1C[C@H](C[C@@H]2C[C@@H](O[Si](C)(C)C(C)(C)C)C[C@H](c3coc(/C=C/C[C@H]4O[C@@H](/C(C)=C/I)[C@H](C)[C@@H](OC(=O)CP(=O)(OCC(F)(F)F)OCC(F)(F)F)[C@H]4C)n3)O2)O[C@@H](CC=O)C1, 0.706 mM, 3.0 h) of 96%.

In the case of `C=C1C[C@@H]2C[C@@H]3C[C@@H](O)C[C@@H](O3)c3coc(n3)/C=C/C[C@H]3O[C@@H](/C(C)=C/c4coc(C[C@]5(O)C[C@H](OC)C[C@H]([C@H](O)/C=C(C)/C=C/[C@@H](CCC)OC)O5)n4)[C@H](C)[C@@H](OC(=O)/C=C\C[C@@H](C1)O2)[C@H]3C` [XVIIb, C(45-46)-Alkyl-Phorboxazole], the GI50 [2] is reported as 3.1 nM, the “tumor cell growth inhibitory activity compared with (+)-phorboxazole A (in words)” value [2] is reported as “activity comparable to that of (+)-phorboxazole A” and the GI50 [3] is reported as 1.6 nM. The GI50 (KM20L2 (colon)) was 1.3 nM.

For `C=CC[C@H](/C=C/C(C)=C/[C@@H](O)[C@H]1C[C@@H](OC)C[C@@](O)(Cc2nc(/C=C(\C)[C@@H]3O[C@@H]4C/C=C/c5nc(co5)[C@H]5C[C@H](O)C[C@@H](C[C@H]6CC(=C)C[C@H](C/C=C\C(=O)O[C@@H]([C@H]4C)[C@H]3C)O6)O5)co2)O1)OC` [XVIIc, C(45-46)-Alkenyl-Phorboxazole], the GI50 [2] was 4.1 nM and the “tumor cell growth inhibitory activity compared with (+)-phorboxazole A (in words)” value [2] was “activity comparable to that of (+)-phorboxazole A”.

For `C#CC[C@H](/C=C/C(C)=C/[C@@H](O)[C@H]1C[C@@H](OC)C[C@@](O)(Cc2nc(/C=C(\C)[C@@H]3O[C@@H]4C/C=C/c5nc(co5)[C@H]5OCC[C@@H](C[C@H]6CC(=C)C[C@H](C/C=C/C(=O)O[C@@H]([C@H]4C)[C@H]3C)O6)O5)co2)O1)OC` [XVIIfE, E-C(2-3) C(11-15)-Acetal Alkynyl Phorboxazole], the GI50 [2] was 944 nM.

In the case of `C#CC[C@H](/C=C/C(C)=C/[C@@H](O)[C@H]1C[C@@H](OC)C[C@@](O)(Cc2nc(/C=C(\C)[C@@H]3O[C@@H]4C/C=C/c5nc(co5)[C@H]5OCC[C@@H](C[C@H]6CC(=C)C[C@H](C/C=C\C(=O)O[C@@H]([C@H]4C)[C@H]3C)O6)O5)co2)O1)OC` [XVIIfZ, Z-C(2-3) C(11-15)-Acetal Alkynyl Phorboxazole], the GI50 [2] is reported as 34.6 nM, the GI50 (KM20L2 (colon)) is reported as 11.8 nM and the GI50 (MCF-3 (breast)) is reported as 18.3 nM.

For `C=C1C[C@@H]2C[C@H]3C[C@@H](O)C[C@H](O3)c3coc(n3)/C=C\C[C@H]3O[C@@H](/C(C)=C/c4coc(C[C@]5(O)C[C@H](OC)C[C@H]([C@H](O)/C=C(C)/C=C/[C@@H](C/C=C/Br)OC)O5)n4)[C@H](C)[C@@H](OC(=O)/C=C\C[C@@H](C1)O2)[C@H]3C` [(+)-Phorboxazole B, Phorboxazole B], the GI50 [4] is given as 1.58 nM.
